The numbers were not newly measured in patent US20250228918A1, “METHODS OF CONTROLLING BODY WEIGHT AND/OR ENERGY EXPENDITURE” (Yale University, priority 2022, published 2025), which cites them from elsewhere.

For the data set the following is noted: in vivo.

Take `C[C@H]1Oc2cc(cnc2N)-c2c(nn(C)c2C#N)CN(C)C(=O)c2ccc(F)cc21` [Lorlatinib]: the brain penetration result is “penetrates well into brain”.
